Assay results published in ChEMBL document CHEMBL1140943, “Third-generation immucillins: syntheses and bioactivities of acyclic immucillin inhibitors of human purine nucleoside phosphorylase” (J Med Chem, 2009).

Each compound was assayed against T1, Purine nucleoside phosphorylase (Homo sapiens, UniProt P00491).
T1 sequence (P00491 whole entry): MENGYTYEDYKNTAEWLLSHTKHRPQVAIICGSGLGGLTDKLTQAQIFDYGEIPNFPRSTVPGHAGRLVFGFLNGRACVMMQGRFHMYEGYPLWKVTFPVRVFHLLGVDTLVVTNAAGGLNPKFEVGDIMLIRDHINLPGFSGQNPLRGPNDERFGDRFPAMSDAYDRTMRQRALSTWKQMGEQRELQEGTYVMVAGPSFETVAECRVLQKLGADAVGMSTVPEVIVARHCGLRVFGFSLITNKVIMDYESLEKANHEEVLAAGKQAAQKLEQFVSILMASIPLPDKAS
Description: Inhibition of human PNP by xanthine-oxidase coupled assay

| Compound | Ki [pM] |
| --- | --- |
| Nc1nc2c(CNC(CO)CO)c[nH]c2c(=O)[nH]1 | 2.1 |
| Nc1nc2c(CN[C@H](CO)[C@H](O)CO)c[nH]c2c(=O)[nH]1 | 3.4 |
| O=c1[nH]cnc2c(CN3C[C@H](CO)[C@@H](O)C3)c[nH]c12 [ULODESINE] | 8.5 |
